Measurements from ChEMBL document CHEMBL5614443, “Hybrids of 3-Hydroxypyridin-4(1H)-ones and Long-Chain 4-Aminoquinolines as Potent Biofilm Inhibitors of Pseudomonas aeruginosa Potentiate Tobramycin and Polymyxin B Activity” (J Med Chem, 2024).
The source made the active and inactive calls. The rule behind the calls is not given here.

Columns and labels:
Pseudomonas aeruginosa [1] = assay: Antibiofilm activity against Pseudomonas aeruginosa PAO1 assessed as inhibition of biofilm formation incubated for 24 hrs by crystal violet staining based analysis; type: functional, organism-based; conditions: PAO1, 24 h
Pseudomonas aeruginosa [2] = assay: Antibacterial activity against Pseudomonas aeruginosa PAO1 assessed as inhibition of bacterial growth at 0.1 to 50 uM measured upto 24 hrs by CLSI protocol based method; type: functional, organism-based; conditions: dose 0.1-50 µM
[3] = Inhibition of quorum sensing system in wildtype Pseudomonas aeruginosa PAO1 assessed as inhibition of elastase production incubated for 24 hrs by elastin-congo red dye based absorbance assay
[4] = Inhibition of quorum sensing system in Pseudomonas aeruginosa PAO1 transfected with mini-ctx-lacZ reporter gene assessed as decrease in beta-galactosidase activity at 1.25 to 20 uM incubated for 6 hrs by Miller assay; conditions: dose 1.25-20 µM
[5] = Inhibition of quorum sensing system in Pseudomonas aeruginosa PAO1 transfected with mini-ctx-lasB-lacZ reporter gene assessed as decrease in beta-galactosidase activity incubated for 6 hrs by Miller assay; conditions: dose 1.25-20 µM
[6] = Inhibition of quorum sensing system in Pseudomonas aeruginosa PAO1 transfected with mini-ctx-pqsA-lacZ reporter gene assessed as decrease in beta-galactosidase activity incubated for 6 hrs by Miller assay; conditions: dose 1.25-20 µM
Pseudomonas aeruginosa [7] = assay: Antibiofilm activity against Pseudomonas aeruginosa overexpressing fpvA assessed as inhibition of biofilm formation at 20 uM incubated for 24 hrs by crystal violet staining based analysis relative to control; type: functional
Pseudomonas aeruginosa [8] = assay: Antibacterial activity against Pseudomonas aeruginosa clinical isolate 0617 assessed as inhibition of bacterial growth incubated for 24 hrs by CLSI protocol based method; type: functional, organism-based
Pseudomonas aeruginosa [9] = assay: Antibacterial activity against Pseudomonas aeruginosa clinical isolate 0815 assessed as inhibition of bacterial growth incubated for 24 hrs by CLSI protocol based method; type: functional, organism-based
Pseudomonas aeruginosa [10] = assay: Antibacterial activity against Pseudomonas aeruginosa clinical isolate 0808 assessed as inhibition of bacterial growth incubated for 24 hrs by CLSI protocol based method; type: functional, organism-based
Pseudomonas aeruginosa [11] = assay: Antibacterial activity against Pseudomonas aeruginosa clinical isolate 1167 assessed as inhibition of bacterial growth incubated for 24 hrs by CLSI protocol based method; type: functional, organism-based
Pseudomonas aeruginosa [12] = assay: Antibacterial activity against Pseudomonas aeruginosa clinical isolate 1074 assessed as inhibition of bacterial growth incubated for 24 hrs by CLSI protocol based method; type: functional, organism-based
Pseudomonas aeruginosa [13] = assay: Antibacterial activity against Pseudomonas aeruginosa clinical isolate 1121 assessed as inhibition of bacterial growth incubated for 24 hrs by CLSI protocol based method; type: functional, organism-based
Pseudomonas aeruginosa [14] = assay: Antivirulence activity in Pseudomonas aeruginosa clinical isolate 1167 assessed as reduction in elastase production at 10 uM incubated for 24 hrs by elastin-congo red dye based absorbance assay; type: functional, organism-based
Pseudomonas aeruginosa [15] = assay: Antivirulence activity in Pseudomonas aeruginosa clinical isolate 1121 assessed as reduction in elastase production at 10 uM incubated for 24 hrs by elastin-congo red dye based absorbance assay; type: functional, organism-based
Pseudomonas aeruginosa [16] = assay: Antivirulence activity in Pseudomonas aeruginosa clinical isolate 0815 assessed as reduction in pyocyanin production at 10 uM incubated for 24 hrs by absorbance based analysis; type: functional, organism-based
Pseudomonas aeruginosa [17] = assay: Synergistic antibacterial activity against Pseudomonas aeruginosa PAO1 assessed as reduction in cell viability at 10 to 50 uM incubated for 24 hrs in the presence of 1/2 MIC of tobramycin by LB agar plate method; type: functional, organism-based; conditions: dose 10-50 µM
Pseudomonas aeruginosa [18] = assay: Synergistic antibacterial activity against Pseudomonas aeruginosa PAO1 assessed as reduction in cell viability at 10 to 50 uM incubated for 24 hrs in the presence of 1/2 MIC of polymyxin B by LB agar plate method; type: functional, organism-based; conditions: dose 10-50 µM
Pseudomonas aeruginosa [19] = assay: Synergistic antibacterial activity against Pseudomonas aeruginosa PAO1 assessed as reduction in cell viability at 10 to 50 uM incubated for 24 hrs in the presence of 1/8 MIC of polymyxin B by LB agar plate method; type: functional, organism-based; conditions: dose 10-50 µM
Pseudomonas aeruginosa [20] = assay: Synergistic antibacterial activity against Pseudomonas aeruginosa PAO1 assessed as bacterial survival rate at 50 uM incubated for 24 hrs in presence of 1/2 MIC of tobramycin by LB agar plate method relative to control; type: functional
Pseudomonas aeruginosa [21] = assay: Synergistic antibacterial activity against Pseudomonas aeruginosa PAO1 assessed as fold reduction in bacterial survival rate incubated for 24 hrs in presence of norfloxacin by LB agar plate method; type: functional
Pseudomonas aeruginosa [22] = assay: Synergistic antibacterial activity against Pseudomonas aeruginosa PAO1 assessed as fold reduction in bacterial survival rate incubated for 24 hrs in presence of erythromycin by LB agar plate method; type: functional
Pseudomonas aeruginosa [23] = assay: Synergistic antibacterial activity against Pseudomonas aeruginosa clinical isolate 1167 assessed as reduction in bacterial viability at 10 to 50 uM incubated for 24 hrs in presence of 1/2 MIC of tobramycin by LB agar plate method; type: functional, organism-based; conditions: dose 10-50 µM
Pseudomonas aeruginosa [24] = assay: Synergistic antibacterial activity against Pseudomonas aeruginosa clinical isolate 1167 assessed as reduction in bacterial viability at 10 to 50 uM incubated for 24 hrs in presence of 1/8 MIC of tobramycin by LB agar plate method; type: functional, organism-based; conditions: dose 10-50 µM
Pseudomonas aeruginosa [25] = assay: Synergistic antibacterial activity against Pseudomonas aeruginosa clinical isolate 1121 assessed as reduction in bacterial viability at 10 to 50 uM incubated for 24 hrs in presence of 1/2 MIC of tobramycin by LB agar plate method; type: functional, organism-based; conditions: dose 10-50 µM
Pseudomonas aeruginosa [26] = assay: Synergistic antibacterial activity against Pseudomonas aeruginosa clinical isolate 0815 assessed as reduction in bacterial viability at 10 to 50 uM incubated for 24 hrs in presence of 1/8 MIC of polymyxin B by LB agar plate method; type: functional, organism-based; conditions: dose 10-50 µM
Pseudomonas aeruginosa [27] = assay: Synergistic antibacterial activity against Pseudomonas aeruginosa clinical isolate 1167 assessed as reduction in bacterial viability at 10 to 50 uM incubated for 24 hrs in presence of 1/4 MIC of polymyxin B by LB agar plate method; type: functional, organism-based; conditions: dose 10-50 µM
Pseudomonas aeruginosa [28] = assay: Synergistic antibacterial activity against Pseudomonas aeruginosa clinical isolate 1167 assessed as reduction in bacterial viability at 10 to 50 uM incubated for 24 hrs in presence of 1/8 MIC of polymyxin B by LB agar plate method; type: functional, organism-based; conditions: dose 10-50 µM
Pseudomonas aeruginosa [29] = assay: Synergistic antibacterial activity against Pseudomonas aeruginosa clinical isolate 1121 assessed as fold reduction in bacterial viability at 50 uM incubated for 24 hrs in presence of 1/2 MIC of polymyxin B by LB agar plate method relative to polymyxin B alone; type: functional
[30] = Cytotoxicity against African green monkey Vero cells assessed as reduction in cell viability incubated for 24 hrs by MTT assay; type: toxicity, cell-based; conditions: chlorocebus sabaeus
[31] = Toxicity in Caenorhabditis elegans assessed as effect on survival upto 200 uM incubated for 72 hrs by bright-field microscopic analysis
Pseudomonas aeruginosa [32] = assay: Antibacterial activity against Pseudomonas aeruginosa PAO1 infected in Caenorhabditis elegans assessed as worm survival at 10 uM by bright-field microscopic analysis (reference value: 24 hrs); type: functional
Pseudomonas aeruginosa [33] = assay: Antibacterial activity against Pseudomonas aeruginosa PAO1 infected in Caenorhabditis elegans assessed as worm survival rate at 10 uM measured after 72 hrs in presence of tobramycin at 1/2 MIC by bright field microscopic analysis relative to control; type: functional
Pseudomonas aeruginosa [34] = assay: Antibacterial activity against Pseudomonas aeruginosa PAO1 infected in Caenorhabditis elegans assessed as worm survival rate at 50 uM measured after 72 hrs in presence of tobramycin at 1/2 MIC by bright field microscopic analysis relative to control; type: functional
Pseudomonas aeruginosa [35] = assay: Antibacterial activity against Pseudomonas aeruginosa PAO1 infected in Caenorhabditis elegans assessed as worm survival rate at 10 uM measured after 96 hrs in presence of polymyxin B at 1/2 MIC by bright field microscopic analysis relative to control; type: functional

Cc1cc(=O)c(O)c(C(=O)NCCCCCCCCNc2ccnc3cc(Cl)ccc23)n1C.Cl
IC50 (Pseudomonas aeruginosa [1]): 5.8 µM | Activity (Pseudomonas aeruginosa [2]): inactive | IC50 [3]: 16.7 µM | inhibition [4]: inactive | inhibition [5]: Dose-Dependent Effect | inhibition [6]: Dose-Dependent Effect | inhibition at 20 µM (Pseudomonas aeruginosa [7]): ~30% | Activity (Pseudomonas aeruginosa [8]): inactive | Activity (Pseudomonas aeruginosa [9]): inactive | Activity (Pseudomonas aeruginosa [10]): inactive | Activity (Pseudomonas aeruginosa [11]): inactive | Activity (Pseudomonas aeruginosa [12]): inactive | Activity (Pseudomonas aeruginosa [13]): inactive | Activity (Pseudomonas aeruginosa [14]): Active | Activity (Pseudomonas aeruginosa [15]): Active | Activity (Pseudomonas aeruginosa [16]): Active | Activity (Pseudomonas aeruginosa [17]): Active | Activity (Pseudomonas aeruginosa [18]): Active | Activity (Pseudomonas aeruginosa [19]): Active | survival at 50 µM (Pseudomonas aeruginosa [20]): < 0.2% | fold change (FC) (Pseudomonas aeruginosa [21]): <10 | fold change (FC) (Pseudomonas aeruginosa [22]): <10 | Activity (Pseudomonas aeruginosa [23]): Active | Activity (Pseudomonas aeruginosa [24]): Active | Activity (Pseudomonas aeruginosa [25]): Active | Activity (Pseudomonas aeruginosa [26]): Active | Activity (Pseudomonas aeruginosa [27]): Active | Activity (Pseudomonas aeruginosa [28]): Active | fold change (FC) (Pseudomonas aeruginosa [29]): 15 | CC50 at 24 h [30]: > 800 µM | Activity [31]: Non-Toxic | Survival (Pseudomonas aeruginosa [32]): 32 h | survival at 10 µM (Pseudomonas aeruginosa [33]): 28.4% | survival at 50 µM (Pseudomonas aeruginosa [34]): 81.5% | survival at 10 µM (Pseudomonas aeruginosa [35]): 32.1%
